Assay [1] deals with CT26WT cells, a murine colon cancer cell line. Briefly: CT26WT syngeneic colon tumor model, OX86 and Compound 1. The class given is in vivo, BALB/c mice. Conditions: OX86 0.08 mg/kg QW i.p.; Compound 1 15 mg/kg QD p.o. Here is the method:
Female BALB/c mice were subcutaneously implanted with 1×10^5 CT26WT cells, a murine colon cancer cell line, in 100 μL PBS in the right flank. After inoculation, the mice were randomized into 4 groups with 20 animals in each group according to the inoculation order. The mice were treated with vehicle (PEG400/0.1N HCl in saline, 40/60) as a negative control.
As monotherapy, OX86 was administered at 0.08 mg/kg once per week (QW) by intraperitoneal (i.p.) injection
Compound 1 was administered as a single therapy at 15 mg/kg once per day (QD) by oral gavage (p.o.). OX86 was administered at 0.08 mg/kg once per week (QW) by intraperitoneal (i.p.) injection in combination with Compound 1 at 15 mg/kg once per day (QD) by oral gavage (p.o.). Tumor volume was determined twice weekly in two dimensions using a caliper, and was expressed in mm3 using the formula: V=0.5(a×b2) where a and b are the long and short diameters of the tumor, respectively. Data is presented as mean tumor volume ±standard error of the mean (SEM). Tumor growth inhibition (TGI) is calculated using the following formula: […]

The test system of assay [2] is MC38 cells, a murine colon adenocarcinoma line. Briefly: MC38 syngeneic colon adenocarcinoma model, 1A7.gr1 and Compound 1. The class given is in vivo, C57BL/6 mice. Here is the method: Female C57BL/6 mice were subcutaneously implanted with 2×10^7 MC38 cells, a murine colon adenocarcinoma line; in 100 μL PBS in the right frank. After inoculation, mice were randomized into 4 groups according to tumor volume. Mice were treated with vehicle (PEG400/0.1N HCL in saline, 40/60) as a control. 1A7.gr1 (sequence previously disclosed in US 20150307617) was confirmed to bind to mouse OX40 in house.
The 1A7.gr1 antibody was administered at 2 mg/kg per week by intraperitoneal injection as a single agent. […] The 1A7.gr1 antibody in combination with Compound 1 was administered at the same dosages and routes of administration as described above. Tumor volumes were determined twice weekly.

Assay [3] relates to tyrosine kinases, including RET, CBL, CHR4q12, DDR and Trk. To be noted: cited from earlier work.
Assay [4] has as its target T1, full-length human OX40 expressed on HuT78/OX40 cells (human, UniProt P43489 29-277).
T1 sequence: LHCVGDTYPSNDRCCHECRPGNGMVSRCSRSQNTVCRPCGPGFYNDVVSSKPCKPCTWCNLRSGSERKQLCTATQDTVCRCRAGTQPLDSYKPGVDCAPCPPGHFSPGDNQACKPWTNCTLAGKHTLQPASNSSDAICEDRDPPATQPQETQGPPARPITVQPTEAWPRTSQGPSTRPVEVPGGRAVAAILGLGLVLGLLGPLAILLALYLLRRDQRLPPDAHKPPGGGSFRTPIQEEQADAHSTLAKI
In words: FACS; cells not named in the sentence (taken as OX40-expressing cells); reference 445-2.

In assay [5] the target is T2, recombinant OX40 protein with a His tag (Cat: 10481-H08H, Sino Biological) (UniProt P43489 29-216).
T2 construct: Bought protein; not shown: His tag
T2 sequence (looked up): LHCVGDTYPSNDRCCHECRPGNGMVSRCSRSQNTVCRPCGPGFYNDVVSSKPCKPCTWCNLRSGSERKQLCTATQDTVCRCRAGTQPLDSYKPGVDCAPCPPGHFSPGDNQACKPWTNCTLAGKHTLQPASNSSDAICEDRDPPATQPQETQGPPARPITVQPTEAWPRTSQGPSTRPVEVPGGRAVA
Briefly: Biacore; OX40 protein not given; reference 445-2.

In assay [6] the target is T3, interaction between OX40 and OX40 ligand (Mus musculus, UniProt P47741).
T3 sequence (P47741 20-272): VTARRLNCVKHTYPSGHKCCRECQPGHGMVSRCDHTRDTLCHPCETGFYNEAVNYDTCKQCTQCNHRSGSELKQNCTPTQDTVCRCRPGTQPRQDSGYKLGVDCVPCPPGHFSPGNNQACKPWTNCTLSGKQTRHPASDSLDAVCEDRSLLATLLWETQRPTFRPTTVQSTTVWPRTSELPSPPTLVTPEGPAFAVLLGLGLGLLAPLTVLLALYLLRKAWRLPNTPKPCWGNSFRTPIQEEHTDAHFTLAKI
T3 sequence (P43488 1-198 partner): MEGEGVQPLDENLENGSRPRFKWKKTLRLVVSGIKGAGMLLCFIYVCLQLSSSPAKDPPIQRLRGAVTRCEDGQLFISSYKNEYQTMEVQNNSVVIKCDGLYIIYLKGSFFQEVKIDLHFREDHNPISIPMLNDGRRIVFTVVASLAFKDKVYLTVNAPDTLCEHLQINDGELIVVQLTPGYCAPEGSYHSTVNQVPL
Conditions: cited from earlier work.

Setting [7] is: 1A7.gr1 2 mg/kg QW i.p., Compound 1 15 mg/kg QD p.o.

In the case of `COCCNCc1ccc(-c2cc3nccc(Oc4ccc(NC(=O)C5(C(=O)Nc6ccc(F)cc6)CC5)cc4F)c3s2)nc1` [Compound 1], in assay [1], the “Mean Tumor Volume on Day 24 (mean ± SEM)” value amounted to 177.4 ± 28.5 mm^3, the “TGI (%) on Day 24” value is 91% and the “Tumor Free Animal (%) on Day 69 (complete responders)” value amounted to 5%. Besides, in assay [2] (setting [7]), the “Mean Tumor Volume on Day 29 (mean ± SEM)” value was 712.5 mm^3 and the “TGI (%) on Day 22” value amounted to 80%. In addition, the “complete response / mice being tumor free on day 22” value in assay [2] (1A7.gr1 2 mg/kg QW×4, Compound 1 15 mg/kg QD×22) is on record as 80%. Moreover, the “inhibition of tyrosine kinases” value in assay [3] is recorded as “potent inhibition”.

B1: 445-2 variant with K28T in the heavy chain and S24R in the light chain (antibody, V domains shown)
VH: QVQLVQSGAEVKKPGSSVKVSCKASGYTFTSYIIHWVRQAPGQGLEWMGYINPYNEGTRYAQKFQGRVTLTADKSTSTAYMELSSLRSEDTAVYYCARGYYGSSYAMDYWGQGTTVTVSS
VL: DIQMTQSPSSLSASVGDRVTITCRASQGISNYLNWYQQKPGKAIKLLIYDASTLYSGVPSRFSGSGSGTDFTLTISSLQPEDFATYYCQQYSKLPYTFGGGTKVEIK
B1: the “fold increase to the EC50 over the original 445-2 antibody” value in assay [4] stood at 1.7 fold.

B2: 445-2 variant with Y27G in the heavy chain and S24R in the light chain (antibody, V domains shown)
VH: QVQLVQSGAEVKKPGSSVKVSCKASGGKFTSYIIHWVRQAPGQGLEWMGYINPYNEGTRYAQKFQGRVTLTADKSTSTAYMELSSLRSEDTAVYYCARGYYGSSYAMDYWGQGTTVTVSS
VL: DIQMTQSPSSLSASVGDRVTITCRASQGISNYLNWYQQKPGKAIKLLIYDASTLYSGVPSRFSGSGSGTDFTLTISSLQPEDFATYYCQQYSKLPYTFGGGTKVEIK
In the case of B2, in assay [5], the “fold increase to the KD over the original 445-2 antibody” value is 1.7 fold.

B3: OX86: rat anti-mouse OX40 antibody of WO2016/057667 engineered with mouse IgG2a constant regions, VH SEQ ID NO: 32, VL SEQ ID NO: 33 (antibody, V domains shown)
VH: QVQLKESGPGLVQPSQTLSLTCTVSGFSLTGYNLHWVRQPPGKGLEWMGRMRYDGDTYYNSVLKSRLSISRDTSKNQVFLKMNSLQTDDTAIYYCTRDGRGDSFDYWGQGVMVTVSS
VL: DIVMTQGALPNPVPSGESASITCRSSQSLVYKDGQTYLNWFLQRPGQSPQLLTYWMSTRASGVSDRFSGSGSGTYFTLKISRVRAEDAGVYYCQQVREYPFTFGSGTKLEIK
modifications: mouse IgG2a constant regions
As for B3, in assay [1], the “Mean Tumor Volume on Day 24 (mean ± SEM)” value is given as 308.5 ± 115.8 mm^3, the “TGI (%) on Day 24” value was 84% and the “Tumor Free Animal (%) on Day 69 (complete responders)” value was found to be 50%. In assay [6], the “blocking of OX40-OX40 ligand interaction” value is “does not block the interaction between OX40 and OX40 ligand”.

The values above are taken from patent US20230022859A1, “TREATMENT OF CANCER WITH ANTI-OX40 ANTIBODIES AND MULTI-KINASE INHIBITORS” (BEIGENE, LTD., priority 2019, published 2023).
